From the supplement of paper PMC9386025

Test system: OVSAHO
Experiment: drug sensitivity score (DSS) (DSS (dimensionless)); higher = more sensitive (stronger drug response)
Conditions: genetic perturbation: DOX-induced PTK7 shRNA knockdown
Outline: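 Ovarian cancer cell lines, after at least three days of shRNA induction with 100 ng/ml doxycycline, and patient-derived cultures were plated at 1 000 – 1 500 cells per well into 384-well plates pre-loaded with drugs at five concentrations spanning a 10,000-fold range. Plates were then kept for three days at 37 °C and 5.0 % CO2. Viability was measured as CellTiter-Glo luminescence on a PHERAstar FS, and each drug's dose-response curve was reduced to a drug sensitivity score computed by a previously described method.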

Row | SMILES | drug sensitivity score
1 | Nc1ccccc1NC(=O)c1ccc(CNc2nccc(-c3cccnc3)n2)cc1 [Mocetinostat] | 10
2 | CCNC(=O)C[C@@H]1N=C(c2ccc(Cl)cc2)c2cc(OC)ccc2-n2c(C)nnc21 [Molibresib] | 6
3 | N#CCNC(=O)c1ccc(-c2ccnc(Nc3ccc(N4CCOCC4)cc3)n2)cc1 [Momelotinib] | 3.6
4 | Cc1cc(OCc2nnc(SC3CCCC3)n2-c2cccnc2)ccc1-c1ccc(S(C)(=O)=O)cc1 [NMS-873] | 5.1
5 | COc1ccc(-c2ccc3ncc4c(c3c2)n(-c2ccc(N3CCNCC3)c(C(F)(F)F)c2)c(=O)n4C)cn1 [NVP-BGT226] | 17.8
6 | COc1cc2c(cc1OC(C)C)[C@H](c1ccc(Cl)cc1)N(c1ccc(N(C)C[C@H]3CC[C@H](N4CCN(C)C(=O)C4)CC3)cc1)C(=O)C2 [NVP-CGM097] | 5.2
7 | CN[C@@H](C)C(=O)N[C@H](C(=O)N1CCC[C@H]1c1nc(C(=O)c2ccc(F)cc2)cs1)C1CCCCC1 [NVP-LCL161] | 6
8 | Cn1c(Nc2ccc(C(F)(F)F)cc2)nc2cc(Oc3ccnc(-c4ncc(C(F)(F)F)[nH]4)c3)ccc21 [NVP-RAF265] | 1.5
9 | CC(=O)c1cc2c(o1)C(=O)c1ccccc1C2=O [Napabucasin] | 18.9
10 | CC1(C)CCC(c2ccc(Cl)cc2)=C(CN2CCN(c3ccc(C(=O)NS(=O)(=O)c4ccc(N[C@H](CCN5CCOCC5)CSc5ccccc5)c(S(=O)(=O)C(F)(F)F)c4)cc3)CC2)C1 [Navitoclax] | 10.1
11 | CCOc1cc2ncc(C#N)c(Nc3ccc(OCc4ccccn4)c(Cl)c3)c2cc1NC(=O)/C=C/CN(C)C [Neratinib] | 0.8
12 | COC(=O)c1ccc2c(c1)NC(=O)/C2=C(\Nc1ccc(N(C)C(=O)CN2CCN(C)CC2)cc1)c1ccccc1 [Nintedanib] | 9.4
13 | CC(=O)c1cnc2ccc(-c3cc(Cl)c(O)c(Cl)c3)nc2c1N[C@H]1CC[C@H](CN(C)C)CC1 [OTS167] | 8
14 | O=C(c1cc(Cc2n[nH]c(=O)c3ccccc23)ccc1F)N1CCN(C(=O)C2CC2)CC1 [Olaparib] | 3.5
15 | COC(=O)C[C@](O)(CCCC(C)(C)O)C(=O)O[C@@H]1C(OC)=C[C@]23CCCN2CCc2cc4c(cc2[C@H]13)OCO4 [Omacetaxine] | 21.7
16 | CC1(C)CC[C@]2(NC(=O)C(C)(F)F)CC[C@]3(C)[C@H](C(=O)C=C4[C@@]5(C)C=C(C#N)C(=O)C(C)(C)[C@@H]5CC[C@]43C)[C@@H]2C1 [Omaveloxolone] | 19.8
17 | COc1ncc(-c2ccc3nccc(-c4ccnnc4)c3c2)cc1NS(=O)(=O)c1ccc(F)cc1F [Omipalisib] | 17.7

Same assay, conditions: genetic perturbation: DOX-induced control shRNA

Row | SMILES | drug sensitivity score
18 | COc1cc(C(=O)O)ccc1NC(=O)[C@@H]1N[C@@H](CC(C)(C)C)[C@](C#N)(c2ccc(Cl)cc2F)[C@H]1c1cccc(Cl)c1F [Idasanutlin] | < 0
19 | O=C(Nc1ccncc1)C(=O)c1cn(Cc2ccc(Cl)cc2)c2ccccc12 [Indibulin] | 2.2
20 | CC(C)NC[C@@H](C(=O)N1CCN(c2ncnc3c2[C@H](C)C[C@H]3O)CC1)c1ccc(Cl)cc1 [Ipatasertib] | 4.6
21 | CC(C)C[C@H](NC(=O)CNC(=O)c1cc(Cl)ccc1Cl)B(O)O [Ixazomib] | 2
22 | CCNCCS(=O)(=O)NC[C@@]1(c2ccccc2)SC(NC(=O)C(C)(C)C)=NN1C(=O)C(C)(C)C [Litronesib] | 9.3
23 | NC(=O)N1CCC(CC(=O)N2CCC([C@H]3c4ncc(Br)cc4CCc4cc(Cl)cc(Br)c43)CC2)CC1 [Lonafarnib] | 9.9
24 | CCNC(=O)c1noc(-c2cc(C(C)C)c(O)cc2O)c1-c1ccc(CN2CCOCC2)cc1 [Luminespib] | 11.3
25 | O=C(Nc1cccc(NC(=O)c2cccc(O)c2O)c1)c1cccc(O)c1O [MST-312] | 6.9
26 | CCN(CC)CCCC(C)Nc1c2ccc(Cl)cc2nc2ccc(OC)cc12 (stereo not given) [Mepacrine] | 11.7
27 | S=c1[nH]cnc2nc[nH]c12 [Mercaptopurine] | 7.3
28 | CN(Cc1cnc2nc(N)nc(N)c2n1)c1ccc(C(=O)N[C@@H](CCC(=O)O)C(=O)O)cc1 [Methotrexate] | 4.6
29 | CO[C@@H]1[C@H](N(C)C(=O)c2ccccc2)C[C@H]2O[C@]1(C)n1c3ccccc3c3c4c(c5c6ccccc6n2c5c31)C(=O)NC4 [Midostaurin] | 7.9
30 | CNC(=O)c1nn(C)c2c1C(C)(C)Cc1cnc(Nc3ccc(N4CCN(C)CC4)cc3)nc1-2 [Milciclib] | 9
31 | CCCCCCCCCCCCCCCCOP(=O)([O-])OCC[N+](C)(C)C [Miltefosine] | 3.6
32 | O=C1c2c(O)ccc(O)c2C(=O)c2c(NCCNCCO)ccc(NCCNCCO)c21 [Mitoxantrone] | 3.8
33 | CCS(=O)(=O)Nc1ccc(Oc2ccc(F)cc2F)c(-c2cn(C)c(=O)c3[nH]ccc23)c1 [Mivebresib] | 23.8
34 | Nc1ccccc1NC(=O)c1ccc(CNc2nccc(-c3cccnc3)n2)cc1 [Mocetinostat] | 3.8

Row | SMILES | drug sensitivity score
35 | CCNC(=O)C[C@@H]1N=C(c2ccc(Cl)cc2)c2cc(OC)ccc2-n2c(C)nnc21 [Molibresib] | 9.4
36 | N#CCNC(=O)c1ccc(-c2ccnc(Nc3ccc(N4CCOCC4)cc3)n2)cc1 [Momelotinib] | 1.7
37 | Cc1cc(OCc2nnc(SC3CCCC3)n2-c2cccnc2)ccc1-c1ccc(S(C)(=O)=O)cc1 [NMS-873] | 7.5
38 | COc1ccc(-c2ccc3ncc4c(c3c2)n(-c2ccc(N3CCNCC3)c(C(F)(F)F)c2)c(=O)n4C)cn1 [NVP-BGT226] | 16.2
39 | COc1cc2c(cc1OC(C)C)[C@H](c1ccc(Cl)cc1)N(c1ccc(N(C)C[C@H]3CC[C@H](N4CCN(C)C(=O)C4)CC3)cc1)C(=O)C2 [NVP-CGM097] | 8.5
40 | CN[C@@H](C)C(=O)N[C@H](C(=O)N1CCC[C@H]1c1nc(C(=O)c2ccc(F)cc2)cs1)C1CCCCC1 [NVP-LCL161] | 4.1
41 | Cn1c(Nc2ccc(C(F)(F)F)cc2)nc2cc(Oc3ccnc(-c4ncc(C(F)(F)F)[nH]4)c3)ccc21 [NVP-RAF265] | 0.3
42 | CC(=O)c1cc2c(o1)C(=O)c1ccccc1C2=O [Napabucasin] | 16.1
43 | CC1(C)CCC(c2ccc(Cl)cc2)=C(CN2CCN(c3ccc(C(=O)NS(=O)(=O)c4ccc(N[C@H](CCN5CCOCC5)CSc5ccccc5)c(S(=O)(=O)C(F)(F)F)c4)cc3)CC2)C1 [Navitoclax] | < 0
44 | CCOc1cc2ncc(C#N)c(Nc3ccc(OCc4ccccn4)c(Cl)c3)c2cc1NC(=O)/C=C/CN(C)C [Neratinib] | 0.4
45 | COC(=O)c1ccc2c(c1)NC(=O)/C2=C(\Nc1ccc(N(C)C(=O)CN2CCN(C)CC2)cc1)c1ccccc1 [Nintedanib] | 1.5
46 | CC(=O)c1cnc2ccc(-c3cc(Cl)c(O)c(Cl)c3)nc2c1N[C@H]1CC[C@H](CN(C)C)CC1 [OTS167] | 10.6
47 | O=C(c1cc(Cc2n[nH]c(=O)c3ccccc23)ccc1F)N1CCN(C(=O)C2CC2)CC1 [Olaparib] | 2.5
48 | COC(=O)C[C@](O)(CCCC(C)(C)O)C(=O)O[C@@H]1C(OC)=C[C@]23CCCN2CCc2cc4c(cc2[C@H]13)OCO4 [Omacetaxine] | 21.7
49 | CC1(C)CC[C@]2(NC(=O)C(C)(F)F)CC[C@]3(C)[C@H](C(=O)C=C4[C@@]5(C)C=C(C#N)C(=O)C(C)(C)[C@@H]5CC[C@]43C)[C@@H]2C1 [Omaveloxolone] | 11.9
50 | COc1ncc(-c2ccc3nccc(-c4ccnnc4)c3c2)cc1NS(=O)(=O)c1ccc(F)cc1F [Omipalisib] | 17.7
